The target of this test is LSD1 (Homo sapiens (Human), UniProt O60341). Briefly: LSD1 Histone Demethylase Biochemical Assay (LANCE LSD1/KDM1A demethylase assay). To be noted: 1 nM LSD-1 enzyme, 1 hour preincubation at 25° C., 0.4 μM Biotin-labeled Histone H3 peptide substrate. How it is done:
LSD1 Histone Demethylase Biochemical Assay
LANCE LSD1/KDM1A demethylase assay-10 μL of 1 nM LSD-1 enzyme (ENZO BML-SE544-0050) in the assay buffer (50 mM Tris, pH 7.5, 0.01% Tween-20, 25 mM NaCl, 5 mM DTT) were preincubated for 1 hour at 25° C. with 0.8 μL compound/DMSO dotted in black 384 well polystyrene plates. […] Reactions were stopped by addition of 10 μL 1× LANCE Detection Buffer (PerkinElmer CR97-100) supplemented with 1.5 nM Eu-anti-unmodified H3K4 Antibody (PerkinElmer TRF0404), and 225 nM LANCE Ultra Streptavidin (PerkinElmer TRF102) along with 0.9 mM Tranylcypromine-HCl (Millipore 616431). After stopping the reactions plates were incubated for 30 minutes and read on a PHERAstar FS plate reader (BMG Labtech).
A general note: TR-FRET usually uses a lanthanide donor and a delayed reading to cut background.

The structures appear in SMILES notation.

As usually defined, the IC50 is the midpoint of a concentration-inhibition curve.

In turn, `Cc1ccc(-c2c(-c3ccc(F)cc3)cc(OC[C@@H]3CCNC3)c3cncn23)cc1` [Example 2, 6-(4-fluorophenyl)-5-(4-methylphenyl)-8-[(3R)-pyrrolidin-3-ylmethoxy]imidazo[1,5-a]pyridine] came in with an IC50 of 500 to 1000 nM. `N#Cc1ccc(-c2cc(OC[C@@H]3CCNC3)c3cncn3c2-c2ccc(Cl)cc2)cc1` [Example 6, 4-{5-(4-chlorophenyl)-8-[(3R)-pyrrolidin-3-ylmethoxy]imidazo[1,5-a]pyridin-6-yl}benzonitrile] gave an IC50 of 50 to 100 nM. The same measure for `N#Cc1ccc(-c2cc(OC[C@@H]3CCNC3)c3cncn3c2-c2cnn(C3CCC3)c2)cc1` [Example 7, 4-{5-(1-cyclobutyl-1H-pyrazol-4-yl)-8-[(3R)-pyrrolidin-3-ylmethoxy]imidazo[1,5-a]pyridin-6-yl}benzonitrile]: 50 to 100 nM; for `CC(C)(C)OC(=O)N1CC=C(c2c(-c3ccc(C#N)cc3)cc(OC[C@@H]3CCNC3)c3cncn23)CC1` [Example 10, tert-butyl 4-{6-(4-cyanophenyl)-8-[(3R)-pyrrolidin-3-ylmethoxy]imidazo[1,5-a]pyridin-5-yl}-3,6-dihydropyridine-1(2H)-carboxylate]: 100 to 500 nM. In turn, `N#Cc1ccc(-c2cc(OC[C@@H]3CCNC3)c3cncn3c2-c2ccc(N3CCOCC3)cc2)cc1` [Example 13, 4-{5-(4-morpholin-4-ylphenyl)-8-[(3R)-pyrrolidin-3-ylmethoxy]imidazo[1,5-a]pyridin-6-yl}benzonitrile] displayed an IC50 of 50 to 100 nM. Turning to `N#Cc1ccc(-c2cc(OC[C@@H]3CCNC3)c3cncn3c2-c2ccc(CN3CCOCC3)cc2)cc1` [Example 17, 4-{5-[4-(morpholin-4-ylmethyl)phenyl]-8-[(3R)-pyrrolidin-3-ylmethoxy]imidazo[1,5-a]pyridin-6-yl}benzonitrile], the IC50 lay in the range of 50 to 100 nM. The same measure for `CN1CCC[C@@H](COc2nc(-c3ccc(C#N)cc3)c(-c3ccc4c(c3)oc(=O)n4C)n3cncc23)C1` [Example 21, 4-(5-(3-methyl-2-oxo-2,3-dihydro-1,3-benzoxazol-6-yl)-8-{[(3R)-1-methylpiperidin-3-yl]methoxy}imidazo[1,5-a]pyrazin-6-yl)benzonitrile]: 50 to 100 nM; for `CN1CCC[C@@H](COc2nc(-c3ccc(C#N)cc3)c(-c3ccc4c(c3)CC(=O)N4C)n3cncc23)C1` [Example 22, 4-(5-(1-methyl-2-oxo-2,3-dihydro-1H-indol-5-yl)-8-{[(3R)-1-methylpiperidin-3-yl]methoxy}imidazo[1,5-a]pyrazin-6-yl)benzonitrile]: 100 to 500 nM; for `CN1CCC[C@@H](COc2nc(-c3ccc(C#N)cc3)c(-c3ccc4c(c3)CCC(=O)N4C)n3cncc23)C1` [Example 24, 4-(5-(1-methyl-2-oxo-1,2,3,4-tetrahydroquinolin-6-yl)-8-{[(3R)-1-methylpiperidin-3-yl]methoxy}imidazo[1,5-a]pyrazin-6-yl)benzonitrile]: 100 to 500 nM. The same measure for `CN1CCC[C@@H](COc2nc(-c3ccc(C#N)cc3)c(-c3ccc4c(c3)OCC(=O)N4C)n3cncc23)C1` [Example 25, 4-(5-(4-methyl-3-oxo-3,4-dihydro-2H-1,4-benzoxazin-7-yl)-8-{[(3R)-1-methylpiperidin-3-yl]methoxy}imidazo[1,5-a]pyrazin-6-yl)benzonitrile]: 50 to 100 nM. The same measure for `CN1CCC[C@@H](COc2nc(-c3ccc(C#N)cc3)c(-c3ccc4c(c3)n(C)c(=O)n4C)n3cncc23)C1` [Example 26, 4-(5-(1,3-dimethyl-2-oxo-2,3-dihydro-1H-benzimidazol-5-yl)-8-{[(3R)-1-methylpiperidin-3-yl]methoxy}imidazo[1,5-a]pyrazin-6-yl)benzonitrile]: 100 to 500 nM; for `CN1CCC[C@@H](COc2nc(-c3ccc(C#N)cc3)c(-c3cnc4c(cnn4C)c3)n3cncc23)C1` [Example 27, 4-[8-{[(3R)-1-methylpiperidin-3-yl]methoxy}-5-(1-methyl-1H-pyrazolo[3,4-b]pyridin-5-yl)imidazo[1,5-a]pyrazin-6-yl]benzonitrile]: 50 to 100 nM; for `CN1CCC[C@@H](COc2nc(-c3ccc(C#N)cc3)c(-c3ccc4ncccc4c3)n3cncc23)C1` [Example 31, 4-(8-{[(3R)-1-methylpiperidin-3-yl]methoxy}-5-quinolin-6-ylimidazo[1,5-a]pyrazin-6-yl)benzonitrile]: 50 to 100 nM. Regarding `Cc1nn(C)c2ccc(-c3c(-c4ccc(C#N)cc4)nc(OC[C@@H]4CCCN(C)C4)c4cncn34)cc12` [Example 32, 4-(5-(1,3-dimethyl-1H-indazol-5-yl)-8-{[(3R)-1-methylpiperidin-3-yl]methoxy}imidazo[1,5-a]pyrazin-6-yl)benzonitrile], the IC50 was 50 to 100 nM. In turn, `CN1CCC[C@@H](COc2nc(-c3ccc(C#N)cc3)c(-c3ccc4ncsc4c3)n3cncc23)C1` [Example 33, 4-(5-(1,3-benzothiazol-6-yl)-8-{[(3R)-1-methylpiperidin-3-yl]methoxy}imidazo[1,5-a]pyrazin-6-yl)benzonitrile] returned an IC50 of 50 to 100 nM.

Compound `CC(O)CN1CCC[C@@H](COc2nc(-c3ccc(C#N)cc3)c(-c3cnc4c(cnn4C)c3)n3cncc23)C1` (stereo partly drawn) [Example 39, 4-[8-{[(3R)-1-(2-hydroxypropyl)piperidin-3-yl]methoxy}-5-(1-methyl-1H-pyrazolo[3,4-b]pyridin-5-yl)imidazo[1,5-a]pyrazin-6-yl]benzonitrile] came in with an IC50 of 100 to 500 nM. As for `Cn1ncc2cc(-c3c(-c4ccc(C#N)cc4)nc(OC[C@@H]4CCCN(CC(C)(C)O)C4)c4cncn34)cnc21` [Example 41, 4-[8-{[(3R)-1-(2-hydroxy-2-methylpropyl)piperidin-3-yl]methoxy}-5-(1-methyl-1H-pyrazolo[3,4-b]pyridin-5-yl)imidazo[1,5-a]pyrazin-6-yl]benzonitrile], the IC50 lay within 50 to 100 nM. The compound `COC(=O)N(C)c1ccc(-c2c(-c3ccc(C#N)cc3)nc(OC[C@@H]3CCCN(C)C3)c3cncn23)cc1` [Example 46] gave an IC50 of 50 to 100 nM. On to `COC(=O)N(C)c1ccc(-c2c(-c3ccc(C#N)cc3)nc(OC[C@@H]3CCCN(C)C3)c3cncn23)cn1` [Example 49], for which the IC50 lay in the range of 100 to 500 nM.

The compound `CN1C(=O)Cc2cc(-c3c(-c4ccc(C#N)cc4)nc(N4CCC(N(C)C)CC4)c4cncn34)ccc21` [Example 52, 4-[8-[4-(dimethylamino)piperidin-1-yl]-5-(1-methyl-2-oxo-2,3-dihydro-1H-indol-5-yl)imidazo[1,5-a]pyrazin-6-yl]benzonitrile] registered an IC50 of 50 to 100 nM.

For `CN(C)C1CCN(c2nc(-c3ccc(C#N)cc3)c(-c3cnc4cccnc4c3)n3cncc23)CC1` [Example 55, 4-[8-[4-(dimethylamino)piperidin-1-yl]-5-(1,5-naphthyridin-3-yl)imidazo[1,5-a]pyrazin-6-yl]benzonitrile], the IC50 lay within 50 to 100 nM. Under `CN1CCC[C@@H](COc2cc(-c3ccc(C#N)cc3)c(-c3cnc4cccnc4c3)n3cncc23)C1` [Example 59, (R)-4-(8-((1-methylpiperidin-3-yl)methoxy)-5-(1,5-naphthyridin-3-yl)imidazo[1,5-a]pyridin-6-yl)benzonitrile] stands 100 to 500 nM.

Compound `CN1CCC[C@@H](COc2cc(-c3ccc(C#N)cc3)c(-c3cnc4ccoc4c3)n3cncc23)C1` [Example 60, (R)-4-(5-(furo[3,2-b]pyridin-6-yl)-8-((1-methylpiperidin-3-yl)methoxy)imidazo[1,5-a]pyridin-6-yl)benzonitrile] showed an IC50 of 50 to 100 nM. As for `CN1CCC[C@@H](COc2cc(-c3ccc(C#N)cc3)c(-c3cnc4c(c3)CCCO4)n3cncc23)C1` [Example 61, (R)-4-(5-(3,4-dihydro-2H-pyrano[2,3-b]pyridin-6-yl)-8-((1-methylpiperidin-3-yl)methoxy)imidazo[1,5-a]pyridin-6-yl)benzonitrile], the IC50 fell in the range of 50 to 100 nM. The same measure for `CCN1CCC[C@@H](COc2cc(-c3ccc(C#N)cc3)c(-c3cnc4c(c3)ncn4C)n3cncc23)C1` [Example 66, (R)-4-(8-((1-ethylpiperidin-3-yl)methoxy)-5-(3-methyl-3H-imidazo[4,5-b]pyridin-6-yl)imidazo[1,5-a]pyridin-6-yl)benzonitrile]: 50 to 100 nM; for `CCN1CCC[C@@H](COc2cc(-c3ccc(C#N)cc3)c(-c3cnc4c(c3)CCCO4)n3cncc23)C1` [Example 68, (R)-4-(5-(3,4-dihydro-2H-pyrano[2,3-b]pyridin-6-yl)-8-((1-ethylpiperidin-3-yl)methoxy)imidazo[1,5-a]pyridin-6-yl)benzonitrile]: 50 to 100 nM.

For `COc1ncc(-c2c(-c3ccc(C#N)cc3)cc(OC[C@@H]3CCCN(C)C3)c3cncn23)cc1N` [Example 69, (R)-4-(5-(5-amino-6-methoxypyridin-3-yl)-8-((1-methylpiperidin-3-yl)methoxy)imidazo[1,5-a]pyridin-6-yl)benzonitrile], the IC50 was in the range of 50 to 100 nM. Take `Cc1ncc(-c2c(-c3ccc(C#N)cc3)nc(OC[C@@H]3CCCN(C)C3)c3cncn23)cc1F` [Example 88, 4-(5-(5-fluoro-6-methylpyridin-3-yl)-8-{[(3R)-1-methylpiperidin-3-yl]methoxy}imidazo[1,5-a]pyrazin-6-yl)benzonitrile]: the IC50 is 50 to 100 nM.

Consider `CN(C)C1CCN(c2nc(-c3ccc(C#N)cc3)c(-c3cnc4ccoc4c3)n3cncc23)CC1` [Example 104, 4-(8-(4-(dimethylamino)piperidin-1-yl)-5-(furo[3,2-b]pyridin-6-yl)imidazo[1,5-a]pyrazin-6-yl)benzonitrile], for which the IC50 lay in the range of 50 to 100 nM.

(Values after patent US9695168B2 (Incyte Corporation, priority 2014, dated 2017).)
